This note sets out measurements from patent publication US20250214973A1, “1,4,5-TRISUBSTITUTED-1,2,3-TRIAZOLES AND USES THEREOF” (UNIVERSITY OF PUERTO RICO, priority 2022, published 2025).

SMILES strings stand for the structures.

The test system of one assay is MCF-7. Kind of assay: Initial screening, SRB assay GI50. The class given is cell-based. Particulars: Homo sapiens, MCF7, 48 hrs. The method, then:
(§1) For initial screening, the GIso of compounds 4a-4h in the cell lines MDA-MB-231, MDA-MB-435 and MCF-7 was determined via the SRB-assay for 48 hrs as follows:
(§2) A stock solution of compounds was prepared at 50 mM in 100% DMSO. For cells preparation, a flask of 75 cm^2 or 25 cm^2 were used for 2.6×10^5 cells/mL or 1.44×10^5 cells/mL, respectively, with an 80-90% of confluence. Cells were washed with PBS and trypsinized. The concentration of cells was determined using a 1:2 dilutions with Trypan Blue and a hemocytometer. After cell count, the concentration was adjusted to have a 7.0-10.0×10^4 cells/mL. Approximately 100 μL of cells suspension, compounds, control positive and control negative were added in triplicates to a 96 well plate. Positive control used was doxorubicin, and the negative control was DMSO 0.1%. All compounds (4a-h) at 50, 25, 12.5, 6.3, and 1.6 μM were incubated with cells at 37° C. for 48 hrs. For fixation, cold TCA 50% was used and incubated at 4° C. for 1 h. Wells were washed and dried prior to tincture with 100 μL of SRB 0.4%. To remove excess of SRB, acetic acid was used. For analysis, TRIS-BASE Solution (pH=10.5) was used and shaken prior to reading using an ELISA reader at 540 nm and the software SoftMax Pro 4.8. For each compound, 50% growth inhibition (GI50) was calculated from Sigmoidal dose-response curves (variable-slope) that were generated with data obtained from experiments carried out in triplicates (GI50 values were generated with GraphPad Prism V. 6.02, GraphPad Software, Inc.).

The subject of assay [1] is MDA-MB-231. Kind of assay: Initial screening, SRB assay GI50. The format is cell-based. The note with it: Homo sapiens, 48 hrs. The method, then:
as §1, §2

Assay [2] deals with MDA-MB-435. Kind of assay: Initial screening, SRB assay GI50. The class given is cell-based. Particulars: Homo sapiens, 48 hrs, read-out: MDA-MB435 GI50. The method, then: as §1, §2
For assay [3], the system named is MDA-MB-231. Kind of assay: Initial screening, inhibition of migration (wound gap). The format is cell-based. Particulars: Homo sapiens, at 10 μM, read-out: Inh. of migration. The method, then: In addition, the inhibition of migration of MDA-MB-231 was determined via the following procedure:
Prior to assays, cells were grown until 80-90% confluence was observed. We used a 75 cm^2 flask for 2.6×10^5 cells/mL in 10 mL and for a 25 cm^2 flask 1.44×10^5 cells/mL in 5 mL. The cells were washed with PBS to remove all traces of FBS. We added 2 mL for a 25 cm^2 flasks or 4 mL for a 75 cm^2 flasks trypsin, and incubated 5-10 min at 37° C. At the end of the incubation time, cells were re-suspended and counted with hemocytometer using 1:2 dilutions with Trypan blue. Subsequently, cell viability was calculated. In a 12 well tissue culture plate, we used the plastic pattern to draw a fine space with a fine marker on the bottom of the plate. Cells were seeded at 1.5-2.2×10^5 cells/mL in 1 mL and incubated for 24 h. Cells were then rinsed with PBS and incubated in starving media (0.5% FBS) overnight. All controls and drugs were tested in triplicate. The negative control for each drug was prepared according to the drug's DMSO concentration. […] The wound was made using a sterile pipette tip of 200 μL. Cells were then rinsed very gently with media without FBS and media with negative controls was added. After a 24 h incubation, the gap distance was evaluated using the software Lumera Infinity Analyze 6.4.0. Pictures were taken at 0, 8, 12 and 24 h using a 10× objective in an Inverted Laboratory Microscope Leica DM IL LED, and an Infinity1-3 3.1 Megapixel USB 2.0 camera CMOS. The percentage of migration was calculated using the following formula: […]

For assay [4], the system named is MDA-MB-435. The experiment in a line: Cell viability assay (MTT). The format is cell-based, human. The note with it: Homo sapiens, MDA-MB-435. The method, then: Cells plated at equal density were treated at 500 nM of compounds. After 72 hours, cell viability was measured by a MTT assay. n=3; * p<0.05, ** p<0.01, *** p<0.001.
Cells plated at equal density were treated at 250 nM of 4c at 250 nM.
Data from 3 biologic replicates each with 2 technical replicates. Four parameter dose-response curves generated using GraphPad Prism are shown.
[…]. GI50 was calculated using Graph pad Prism.
[…] Using CellTiter 96 Non-Radioactive Cell Proliferation Assay (Promega, Corp.) according to manufactures' instructions, formazan was used as an indicator of viable cells at an absorbance 570 nm in a Tecan Microplate Reader M100. Data was calculated as fold change from vehicle and fitted using the 4′parameter logic nonlinear regression model in GraphPad Prism software. (n=3 biologic replicates: with 3 technical replicates each).
A range of compounds were tested by MTT assays for cell viability in MDA-MB-231 triple negative breast cancer (TNBC) cells and MDA-MB-435 HER2++ cancer cells. […].

Another assay deals with Panc-1. Kind of assay: Wound healing assay. The note with it: Homo sapiens, 24 hr, read-out: inhibition of Panc-1 cell migration. The format is cell-based. The method, then:
(§3) Mircrographs were digitally acquired at 0, 12, and 24 hours and the area of the wound quantified relative to the distance at time 0. n=3.
Panc-1 cells plated at equal density were subjected to a scratch in the center and treated with 4c at 0, 150 nM, 250 nM, or 500 nM. Mircrographs were digitally acquired at 0, 12, and 24 hours and the area of the wound quantified relative to the distance at time 0. n=3.

Assay [5] deals with RAW264.7 macrophage cell line. The experiment in a line: Wound healing assay. The class given is cell-based, murine. Particulars: Mus musculus, read-out: inhibition of wound closure, RAW264.7. As to the method:
as §3
Murine macrophage cell line, RAW264.7, plated at equal density were subjected to a scratch in the center and treated with 4c at 0, 150 nM, 250 nM, or 500 nM. Mircrographs were digitally acquired at 0, 12, and 24 hours and the area of the wound quantified relative to the distance at time 0. n=3.

Turning to `CCn1c2ccccc2c2cc(-n3nnc(C(O)c4cccc(OC)c4)c3-c3ccccc3)ccc21` (stereo not drawn) [Compound 4c, (1-(9-ethyl-9H-carbazol-3-yl)-5-phenyl-1H-1,2,3-triazol-4-yl) (3-methoxyphenyl) methanol], the 50% growth inhibitory concentration (GI50) with MCF-7 was determined as 3200 nM; with MDA-MB-231 [1], 17200 nM; in the assay with MDA-MB-435 [2], 1600 nM; in the assay on MDA-MB-435 [4] (120 hours, 0-1000 nM, read-out: GI50, MDA-MB-435), 261 nM. For the same compound, the inhibition at 10 µM in the assay with MDA-MB-231 [3] amounted to 50.8 ± 11.4%. The inhibition at […] with MDA-MB-435 [4] (250 nM (FIG. 1C), read-out: inhibition of MDA-MB-435 cells) is approximately 60%; in the assay on Panc-1 (250 nM), approximately 40%; in assay [5] (250 nM), 80%. Further, in the assay with MDA-MB-435 [4] (500 nM, 72 hours, read-out: decrease in cell viability, MDA-MB-435), the cytotoxicity at 0.5 µM was approximately 80%. Also, the results for the inhibition at 0.5 µM (with Panc-1 (500 nM); in assay [5] (500 nM)) were 75% and 90%, respectively. The inhibition at 0.15 µM in assay [5] (150 nM) is 50%.
